Laboratory results taken from PubChem BioAssay AID1963838 (Molecular Pharmacology Branch, DTP, NCI, 2024).

Tested on: 855422-203-R-J1-PDC complex spheroid viability
Test: Anticancer human tumor 855422-203-R-J1-PDC patient-derived bladder carcinoma cell line growth inhibition [POLQ]
Conditions: for IC50: curve of first compound; for viability, T/C: stronger effect = lower value
How it was run: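 Complex spheroid viability model combining PDC tumour cells with endothelial (HUVEC) and MSC stromal cells. Novobiocin, ART-558 or RP6685 were tested singly and in combination with standard and investigational anticancer drugs. Each was titrated in half-log steps from near clinical Cmax, or from 10 microM where Cmax was unknown.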

[1] = second compound 0.0316 µM, first compound 0.0316 µM
[2] = second compound 0.0316 µM, first compound 0.1 µM
[3] = second compound 0.1 µM, first compound 0.0316 µM
[4] = second compound 0.1 µM, first compound 0.1 µM
[5] = second compound 0.316 µM, first compound 0.0316 µM
[6] = second compound 0.316 µM, first compound 0.1 µM
[7] = second compound 1 µM, first compound 0.0316 µM
[8] = second compound 1 µM, first compound 0.1 µM
[9] = second compound 3.16 µM, first compound 0.0316 µM
[10] = second compound 3.16 µM, first compound 0.1 µM
[11] = second compound 10 µM, first compound 0.0316 µM
[12] = second compound 10 µM, first compound 0.1 µM
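Further: spheroids exposed to compounds for seven days before readout.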

CC[C@@]1(O)C(=O)OCc2c1cc1n(c2=O)Cc2cc3c(CN(C)C)c(O)ccc3nc2-1 + Cc1cccc(N(C)C(=O)C2C(O)CCN2c2nc(C)cc(C(F)(F)F)c2C#N)c1
IC50 (second compound 0.0316 µM): 29.1 nM
IC50 (second compound 0.1 µM): 32.4 nM
IC50 (second compound 0.316 µM): 28 nM
IC50 (second compound 1 µM): 26.5 nM
IC50 (second compound 3.16 µM): 26.4 nM
IC50 (second compound 10 µM): 23.1 nM
viability, T/C (second compound 0.0316 µM, first compound 0.000316 µM): 102%
viability, T/C (second compound 0.0316 µM, first compound 0.001 µM): 97.4%
viability, T/C (second compound 0.0316 µM, first compound 0.00316 µM): 99.8%
viability, T/C (second compound 0.0316 µM, first compound 0.01 µM): 82.5%
viability, T/C [1]: 47.7%
viability, T/C [2]: 13.3%
viability, T/C (second compound 0.1 µM, first compound 0.000316 µM): 118%
viability, T/C (second compound 0.1 µM, first compound 0.001 µM): 104%
viability, T/C (second compound 0.1 µM, first compound 0.00316 µM): 99%
viability, T/C (second compound 0.1 µM, first compound 0.01 µM): 103%
viability, T/C [3]: 50.8%
viability, T/C [4]: 13.7%
viability, T/C (second compound 0.316 µM, first compound 0.000316 µM): 94.7%
viability, T/C (second compound 0.316 µM, first compound 0.001 µM): 105%
viability, T/C (second compound 0.316 µM, first compound 0.00316 µM): 97.5%
viability, T/C (second compound 0.316 µM, first compound 0.01 µM): 99.5%
viability, T/C [5]: 44.1%
viability, T/C [6]: 14.1%
viability, T/C (second compound 1 µM, first compound 0.000316 µM): 99.7%
viability, T/C (second compound 1 µM, first compound 0.001 µM): 96.4%
viability, T/C (second compound 1 µM, first compound 0.00316 µM): 116%
viability, T/C (second compound 1 µM, first compound 0.01 µM): 89.4%
viability, T/C [7]: 43%
viability, T/C [8]: 12.4%
viability, T/C (second compound 3.16 µM, first compound 0.000316 µM): 102%
viability, T/C (second compound 3.16 µM, first compound 0.001 µM): 100%
viability, T/C (second compound 3.16 µM, first compound 0.00316 µM): 113%
viability, T/C (second compound 3.16 µM, first compound 0.01 µM): 94.9%
viability, T/C [9]: 41.6%
viability, T/C [10]: 11.9%
viability, T/C (second compound 10 µM, first compound 0.000316 µM): 97.4%
viability, T/C (second compound 10 µM, first compound 0.001 µM): 97.7%
viability, T/C (second compound 10 µM, first compound 0.00316 µM): 107%
viability, T/C (second compound 10 µM, first compound 0.01 µM): 86.8%
viability, T/C [11]: 36%
viability, T/C [12]: 11.6%

COc1cc(C2c3cc4c(cc3C(OC3OC5COC(C)OC5C(O)C3O)C3COC(=O)C23)OCO4)cc(OC)c1O (centres undefined) + Cc1cccc(N(C)C(=O)C2C(O)CCN2c2nc(C)cc(C(F)(F)F)c2C#N)c1
IC50 (second compound 0.0316 µM): 229 nM
IC50 (second compound 0.1 µM): 222 nM
IC50 (second compound 0.316 µM): 205 nM
IC50 (second compound 1 µM): 189 nM
IC50 (second compound 3.16 µM): 180 nM
IC50 (second compound 10 µM): 137 nM
viability, T/C [1]: 102%
viability, T/C [2]: 102%
viability, T/C (second compound 0.0316 µM, first compound 0.316 µM): 30.1%
viability, T/C (second compound 0.0316 µM, first compound 1 µM): 11.4%
viability, T/C (second compound 0.0316 µM, first compound 3.16 µM): 7.61%
viability, T/C (second compound 0.0316 µM, first compound 10 µM): 4.64%
viability, T/C [3]: 98.4%
viability, T/C [4]: 98.4%
viability, T/C (second compound 0.1 µM, first compound 0.316 µM): 28.7%
viability, T/C (second compound 0.1 µM, first compound 1 µM): 12.5%
viability, T/C (second compound 0.1 µM, first compound 3.16 µM): 6.62%
viability, T/C (second compound 0.1 µM, first compound 10 µM): 4.51%
viability, T/C [5]: 111%
viability, T/C [6]: 89.8%
viability, T/C (second compound 0.316 µM, first compound 0.316 µM): 25.9%
viability, T/C (second compound 0.316 µM, first compound 1 µM): 11.4%
viability, T/C (second compound 0.316 µM, first compound 3.16 µM): 8.46%
viability, T/C (second compound 0.316 µM, first compound 10 µM): 4.61%
viability, T/C [7]: 113%
viability, T/C [8]: 80.2%
viability, T/C (second compound 1 µM, first compound 0.316 µM): 24.8%
viability, T/C (second compound 1 µM, first compound 1 µM): 11.8%
viability, T/C (second compound 1 µM, first compound 3.16 µM): 6.9%
viability, T/C (second compound 1 µM, first compound 10 µM): 5.16%
viability, T/C [9]: 97.7%
viability, T/C [10]: 77%
viability, T/C (second compound 3.16 µM, first compound 0.316 µM): 23.5%
viability, T/C (second compound 3.16 µM, first compound 1 µM): 12.4%
viability, T/C (second compound 3.16 µM, first compound 3.16 µM): 6.67%
viability, T/C (second compound 3.16 µM, first compound 10 µM): 4.34%
viability, T/C [11]: 97%
viability, T/C [12]: 60.9%
viability, T/C (second compound 10 µM, first compound 0.316 µM): 20.7%
viability, T/C (second compound 10 µM, first compound 1 µM): 13.5%
viability, T/C (second compound 10 µM, first compound 3.16 µM): 6.34%
viability, T/C (second compound 10 µM, first compound 10 µM): 4.46%
